{
  "source": "patent US20100021555A1",
  "about": "“Compositions containing high omega-3 and low saturated fatty acid levels” (priority 2004, published 2010)",
  "key": {"lactating dairy cows": {"test_system": "lactating dairy cows", "assay": "Pilot supplementation study in lactating dairy cows: milk fatty acids by GC", "assay_type": "in vivo, Friesian dairy cows", "from_the_text": "(§1) Ethical approval was obtained from the University of Auckland Animal Ethics Committee to undertake an pilot supplementation study. The study involved supplementing the diets of four Friesian dairy cows with single daily dose of 40 and 160 of ethyl-eicospaentaenoic acid (>98% purity) for nine days. Cows were divided into a high-to-low dose (HTLD) group (n=2) with animals supplemented with 160 grams of EPA at day one with the dose decreasing by 15 grams each day to reach 40 grams at day nine and a low-to-high dose (LTHD) group (n=2) with animals supplemented with 40 grams on day one the dose increasing by 15 grams each day to reach 160 grams at day nine. Feeding and milk sampling was undertaken between 19 and 29 August 2004 at a dairy farm in West Aucldand under the supervision of a supervising veterinarian with experience in caring for the herd. Supplements were given by drenching gun once daily in the morning subsequent to milking. Prior to supplementation each day duplicate 50 ml samples of milk were collected from each animal and stored in 100 ml polyethylene containers in a temperature controlled minus 20 deg C. freezer within one hour of collection. Milk samples were thawed and fatty acids extracted and prepared for analysis. Milkfat was methylated by dissolving in hexane and reaction with 2 molar KOH methanol. 20 milligrams of fat dissolved in 2 mls in N-Hexane then 20 micro-litres of 2 molar KOH methanol was added left to stand for 3 seconds and vortexed vigorously for 30 seconds. The mixture was then allowed to stand for 6 minutes before being neutralized to methyl red with 2 molar HCl in water before being vortexed again and centrifuged (modified method from agilent website also reported in Terry Knight publications) Knight T. W., et al., New Zealand Journal Of Agricultural Research 47:3,: 287-297 SEP (2004). An aliquot of hexane was then taken and analysed by GCFID 6890 (Agilent Corp) with 105 meter 0.25 mm RTX2330 90% bis cyanoprofile column (Restek) and 0.25 micron film thickness. Fatty acids were identified by retention time in comparison with a 37-component mixture (Suplco). Peak areas were corrected for peak response using theoretical response factors (AOCS reference). Results were reported as area under curve.\nA permutation based method of statistical analysis was used to assess FA baseline composition with reference to a reference baseline derived from population of four thousand one hundred NZ Fresian dairy cows. Each fatty acid peak measured in the feeding trial was logged (log base 2), and had the day 0 (baseline) measurement subtracted to report a change from baseline at each time point. Significance of the changes in four-cow and two-cow means was tested by randomly selecting many groups of two or four cows from the herd of 4100 animal reference dataset and comparing the feeding trial results against the mean of logged measurements from the larger reference population. This produced baseline distributions for each group size which were centered at zero to match the baseline centered means from the animals in the feeding trial. Significance thresholds were then adjusted for the number of fatty acid peaks being investigated, and the number of measurements taken."}, "delta-9-desaturase": {"test_system": "delta-9-desaturase", "assay": "Milkfat substrate/product ratios (SFA : monounsaturated counterpart), proxy for delta-9-desaturase activity", "assay_type": "in vivo, Friesian dairy cows", "conditions": "for C:18:C18:1 ratio in milkfat: baseline 0.49; for C:10:C10:1 ratio in milkfat: baseline 12.66; for C:14:C14:1 ratio in milkfat: baseline 14.93; for C:16:C16:1 ratio in milkfat: baseline 17.40", "from_the_text": "as §1\nSaturated Fatty Acids: A reduction in dietary amounts of certain saturated fatty acids (SFAs), including in particular the major milk fatty acid C16:0, a has been recommended by health experts (WHO Technical Report Series 916, WHO Geneva (2003)). Under normal circumstances about 50% of dietary C16:0 is taken up by the mammary gland. […] This decrease in milkfat C16:0 is unlikely to be explained by altered feeding behavior during the study given corresponding changes were not observed in other SFAs. In order to investigate the contribution of further metabolism of C16:0 in the mammary gland to palmitoleic acid (C16:1) we compared substrate/product ratios in milkfat for a number of SFAs and their monounsaturated fatty acid counterparts. These ratios are considered to be a proxy measure for the activity of the delta-9-desaturase activity enzyme. (see Table 1 below)."}, "dairy cows": {"test_system": "dairy cows", "conditions": "cited from earlier work"}, "bovine hepatocytes": {"test_system": "bovine hepatocytes", "conditions": "bovine hepatocytes supplemented in vitro; cited from earlier work"}, "rumen microorganisms": {"test_system": "rumen microorganisms", "conditions": "in vitro; cited from earlier work"}},
  "data": [
    {"smiles": "CC/C=C\\C/C=C\\C/C=C\\C/C=C\\C/C=C\\CCCC(=O)OCC", "note": "[ethyl-eicospaentaenoic acid]", "values": [
      {"measurement": "day by which milk DPA rose significantly from baseline", "setting": "lactating dairy cows; HTLD group", "value": "three"},
      {"measurement": "day by which milk EPA rose significantly from baseline", "setting": "lactating dairy cows; HTLD group", "value": "two"},
      {"measurement": "EPA as a percentage of total fatty acids in milk, peak", "setting": "lactating dairy cows; HTLD group (160 to 40 g/day), peak at day five", "value": 1.55, "unit": "% TFA"},
      {"measurement": "DPA as a percentage of total fatty acids in milk, peak", "setting": "lactating dairy cows; HTLD group, peak at day six", "value": 0.41, "unit": "% TFA"},
      {"measurement": "day by which milk DPA rose significantly from baseline", "setting": "lactating dairy cows; LTHD group", "value": "seven"},
      {"measurement": "day by which milk EPA rose significantly from baseline", "setting": "lactating dairy cows; LTHD group", "value": "five"},
      {"measurement": "EPA as a percentage of total fatty acids in milk, peak", "setting": "lactating dairy cows; LTHD group (40 to 160 g/day), peak at day nine", "value": 1.29, "unit": "% TFA"},
      {"measurement": "DPA as a percentage of total fatty acids in milk, peak", "setting": "lactating dairy cows; LTHD group, peak at day eleven", "value": 0.38, "unit": "% TFA"},
      {"measurement": "milkfat stearic acid (C18:0)", "setting": "lactating dairy cows; already significant by day three", "value": "dramatic reduction"},
      {"measurement": "maximum reduction of % TFA C16:0 in milk", "setting": "lactating dairy cows; day nine, across both groups", "value": "15.44 % of baseline levels"},
      {"measurement": "% TFA C16:0 in milk", "setting": "lactating dairy cows; day nine, across both groups, baseline 36.78", "value": 31.1, "unit": "% TFA"},
      {"measurement": "CLA in milk, increase over baseline levels at maximum", "setting": "lactating dairy cows; in vivo", "value": 375, "unit": "%"},
      {"measurement": "CLA in milk, maximum level", "setting": "lactating dairy cows; in vivo", "value": "4.2 % of total fatty acids"},
      {"measurement": "CLA in milk, mean increase over baseline levels", "setting": "lactating dairy cows; mean", "value": 274, "unit": "%"},
      {"measurement": "DHA in milk", "setting": "lactating dairy cows; undetectable at baseline, throughout the study", "value": "remained unchanged"},
      {"measurement": "C:10:C10:1 ratio, % of baseline", "setting": "delta-9-desaturase; Day Eleven", "value": "106.4 % of baseline"},
      {"measurement": "C:14:C14:1 ratio, % of baseline", "setting": "delta-9-desaturase; Day Eleven", "value": "110.6 % of baseline"},
      {"measurement": "C:16:C16:1 ratio, % of baseline", "setting": "delta-9-desaturase; Day Eleven", "value": "113.4 % of baseline"},
      {"measurement": "C:18:C18:1 ratio, % of baseline", "setting": "delta-9-desaturase; Day Eleven", "value": "98 % of baseline"},
      {"measurement": "C:18:C18:1 ratio in milkfat", "setting": "delta-9-desaturase; Day Eleven", "value": 0.48},
      {"measurement": "C:10:C10:1 ratio in milkfat", "setting": "delta-9-desaturase; Day Eleven", "value": 13.46},
      {"measurement": "C:14:C14:1 ratio in milkfat", "setting": "delta-9-desaturase; Day Eleven", "value": 16.51},
      {"measurement": "C:16:C16:1 ratio in milkfat", "setting": "delta-9-desaturase; Day Eleven", "value": 19.67},
      {"measurement": "C:10:C10:1 ratio, % of baseline", "setting": "delta-9-desaturase; Day Five", "value": "82.5 % of baseline"},
      {"measurement": "C:14:C14:1 ratio, % of baseline", "setting": "delta-9-desaturase; Day Five", "value": "83.3 % of baseline"},
      {"measurement": "C:16:C16:1 ratio, % of baseline", "setting": "delta-9-desaturase; Day Five", "value": "90.6 % of baseline"},
      {"measurement": "C:18:C18:1 ratio, % of baseline", "setting": "delta-9-desaturase; Day Five", "value": "65.3 % of baseline"},
      {"measurement": "C:10:C10:1 ratio in milkfat", "setting": "delta-9-desaturase; Day Five, across both groups", "value": 10.45},
      {"measurement": "C:18:C18:1 ratio in milkfat", "setting": "delta-9-desaturase; Day Five", "value": 0.32},
      {"measurement": "C:14:C14:1 ratio in milkfat", "setting": "delta-9-desaturase; Day Five", "value": 12.44},
      {"measurement": "C:16:C16:1 ratio in milkfat", "setting": "delta-9-desaturase; Day Five", "value": 15.76}
    ]},
    {"smiles": "CC/C=C\\C/C=C\\C/C=C\\CCCCCCCC(=O)O", "note": "[ALA, alpha linolenic acid]", "values": [
      {"measurement": "EPA in milkfat", "setting": "dairy cows; duodenal infusion of 500 grams per day of ALA", "value": "no concomitant increase"},
      {"measurement": "level of ALA in milkfat", "setting": "dairy cows; duodenal infusion of 500 grams per day", "value": 14, "unit": "%"}
    ]},
    {"smiles": "CC/C=C\\C/C=C\\C/C=C\\C/C=C\\C/C=C\\CCCC(=O)O", "note": "[EPA, 5,8,11,14,17,-eicosapentaenoic acid (20:5n-3)]", "values": [
      {"measurement": "oxidation of C16:0", "setting": "bovine hepatocytes", "value": "significant increase"},
      {"measurement": "biohydrogenation of linoleic (LA C18:2) and alpha-linolenic (ALA C18:3) acid", "setting": "rumen microorganisms", "value": "inhibition"}
    ]}
  ]
}
